Measurements: the supplement of paper PMC10307832

How the values were obtained:
Assay in all cases: relative viability (nuclei count vs DMSO), 5 days (fraction); higher = more cells survive
Ponatinib + Tozasertib = compound: Cc1ccc(C(=O)Nc2ccc(CN3CCN(C)CC3)c(C(F)(F)F)c2)cc1C#Cc1cnc2cccnn12 [Ponatinib] + Cc1cc(Nc2cc(N3CCN(C)CC3)nc(Sc3ccc(NC(=O)C4CC4)cc3)n2)n[nH]1 [Tozasertib] (partner 0.1 µM)
In short: (§1)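 Nuclei were stained with Hoechst during a one-step fixation (final 0.05% Triton X-100, 1% formaldehyde, 1 ug/ml Hoechst) carried out 5 days after dosing, then counted on 4× images. The cells, lung cancer lines in 1536-well plates, had been dosed by pin tool the day after seeding with one drug alone or a fixed anchor-drug dose plus five library-drug doses (not always all listed) in √10 steps. Relative viability is the nuclei count in treated wells divided by that in vehicle wells, and each value is the median of duplicate plates.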

Pazopanib + Palbociclib = compound: Cc1ccc(Nc2nccc(N(C)c3ccc4c(C)n(C)nc4c3)n2)cc1S(N)(=O)=O [Pazopanib] + CC(=O)c1c(C)c2cnc(Nc3ccc(N4CCNCC4)cn3)nc2n(C2CCCC2)c1=O [Palbociclib] (partner 0.5 µM)
In short: as §1

Pazopanib + Lapatinib = compound: Cc1ccc(Nc2nccc(N(C)c3ccc4c(C)n(C)nc4c3)n2)cc1S(N)(=O)=O [Pazopanib] + CS(=O)(=O)CCNCc1ccc(-c2ccc3ncnc(Nc4ccc(OCc5cccc(F)c5)c(Cl)c4)c3c2)o1 [Lapatinib] (partner 2 µM)
In short: as §1

Pazopanib + Olaparib = compound: Cc1ccc(Nc2nccc(N(C)c3ccc4c(C)n(C)nc4c3)n2)cc1S(N)(=O)=O [Pazopanib] + O=C(c1cc(Cc2n[nH]c(=O)c3ccccc23)ccc1F)N1CCN(C(=O)C2CC2)CC1 [Olaparib] (partner 8 µM)
In short: as §1

**Q.** Which results are given for UMC-11?
**A.** relative viability (Ponatinib + Tozasertib; first compound 0.002 µM): 0.193; relative viability (Ponatinib + Tozasertib; first compound 0.006325 µM): 0.223; relative viability (Ponatinib + Tozasertib; first compound 0.06325 µM): 0.209; relative viability (Ponatinib + Tozasertib; first compound 0.2 µM): 0.217; relative viability (Pazopanib + Palbociclib; first compound 0.01 µM): 0.305; relative viability (Pazopanib + Palbociclib; first compound 0.03162 µM): 0.347; relative viability (Pazopanib + Palbociclib; first compound 0.1 µM): 0.31; relative viability (Pazopanib + Palbociclib; first compound 0.3162 µM): 0.358; relative viability (Pazopanib + Palbociclib; first compound 1 µM): 0.32; relative viability (Pazopanib + Lapatinib; first compound 0.01 µM): 0.807; relative viability (Pazopanib + Lapatinib; first compound 0.03162 µM): 1.03; relative viability (Pazopanib + Lapatinib; first compound 0.1 µM): 0.939; relative viability (Pazopanib + Lapatinib; first compound 0.3162 µM): 1.01; relative viability (Pazopanib + Lapatinib; first compound 1 µM): 1.12; relative viability (Pazopanib + Olaparib; first compound 0.01 µM): 0.425; relative viability (Pazopanib + Olaparib; first compound 0.03162 µM): 0.359; relative viability (Pazopanib + Olaparib; first compound 0.1 µM): 0.41; relative viability (Pazopanib + Olaparib; first compound 0.3162 µM): 0.509; relative viability (Pazopanib + Olaparib; first compound 1 µM): 0.34
